For one experiment, the target named is T1, 5-HT1A receptors (Rattus norvegicus, UniProt P19327).
T1 construct: from tissue; host or cells: whole animal: male Sprague-Dawley rats (post-synaptic 5-HT1A receptors)
T1 sequence (P19327 1-422): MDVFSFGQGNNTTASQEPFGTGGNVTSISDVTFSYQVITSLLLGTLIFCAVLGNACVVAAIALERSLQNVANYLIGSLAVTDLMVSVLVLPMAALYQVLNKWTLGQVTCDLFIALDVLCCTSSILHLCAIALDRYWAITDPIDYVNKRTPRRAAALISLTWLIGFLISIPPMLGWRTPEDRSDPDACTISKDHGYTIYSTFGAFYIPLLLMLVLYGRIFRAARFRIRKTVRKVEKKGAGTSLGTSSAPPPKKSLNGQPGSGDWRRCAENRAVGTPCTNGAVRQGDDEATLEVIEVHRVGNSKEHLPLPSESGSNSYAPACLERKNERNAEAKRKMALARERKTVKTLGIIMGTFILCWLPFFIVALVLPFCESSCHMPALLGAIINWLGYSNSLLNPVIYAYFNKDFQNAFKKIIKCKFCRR
Put plainly: Inhibition of stereotypy (rhythmic forepaw treading) induced by 8-OH-DPAT in rats (post-synaptic antagonism). Format: in vivo. To be noted: 1 mg/kg p.o.; for inhibition at 1 mg/kg: rat. On the procedure: The inhibitory effect of 5-HT1A-receptor antagonists on stereotyped forepaw treading induced in rats by subcutaneous injection of 8-OH-DPAT was evaluated by the method of Tricklebank (Tricklebanket al., Eur. J. Pharmacol., 117: 15, 1985) with minor modifications as described below.
Male Sprague-Dawley rats [Crl: CD° (SD) BR] weighing 150-175 g from Charles River Italia were used. The animals were housed with free access to food and water and maintained on a forced 12-hour-light/12-hour-dark cycle at 22-24° C. of temperature. On the day of the experiment, the rats were placed singly in clear plastic containers, 10-15 minutes before administration of the vehicle or compounds to be tested. For evaluation of antagonistic activity after oral administration, the compounds were administered 0.5, 1 and 4 hours before induction of stereotypy by 8-OH-DPAT (1 mg/kg subcutaneously). Observation sessions lasted 30 seconds and began 3 minutes after 8-OH-DPAT treatment and were repeated every 3 minutes over a period of 15 minutes.
The appearance of the symptom induced by postsynaptic stimulation of 5-HT1A receptors was noted, and the intensity was scored using an intensity scale in which: 0=absent, 1=equivocal, 2=present and 3=intense. Behavioural scores for treated rats were accumulated throughout the observation time (5 observation periods) and expressed as mean values of 4 rats/dose. Change in mean values of treated animals in comparison with control (vehicle) group, expressed as per-cent inhibition, was used in order to quantify the antagonistic activity.

The subject of the next experiment is anaesthetised rats. Briefly: Effects on rhythmic bladder-voiding contractions induced by bladder filling in anaesthetised rats. Format: in vivo, rat. The settings on record: intravenous administration, urethane-anaesthetised rats. On the procedure:
Female Sprague-Dawley rats weighing 225-275 g (Crl: CDo Br, Charles River Italia) were used. The animals were housed with free access to food and water and maintained on a forced 12-hour alternating light-dark cycle at 22-24° C. for at least one week, except during the experiment. The activity on rhythmic bladder voiding contractions was evaluated according to the method of Dray (Dray J., Pharmacol. Methods, 13:157, 1985), with some modifications as in Guarneri (Guarneri, Pharmacol. Res. 27:173, 1993). Briefly, the rats were anaesthetised by subcutaneous injection of 1.25 g/kg (5 ml/kg) urethane, after which the urinary bladder was catheterised via the urethra using PE 50 polyethylene tubing filled with physiological saline. The catheter was tied in place with a ligature around the external urethral orifice and was connected to conventional pressure transducers (Statham P23 ID/P23 XL). […] The bladder was then filled via the recording catheter by incremental volumes of warm (37° C.) saline until reflex bladder-voiding contractions occurred (usually 0.8-1.5 ml). For intravenous injection of bioactive compounds, PE 50 polyethylene tubing filled with physiological saline was inserted into the jugular vein.
From the cystometrogram, the number of contractions recorded 15 minutes before (basal values) and after treatment, as well as the mean amplitude of these contractions (mean height of the peaks in mmHg), was evaluated.
Since most compounds produced an effect that was relatively rapid in onset and led to a complete cessation of bladder contractions, bioactivity was conveniently estimated by measuring the duration of bladder quiescence (i.e. the length of the time during which no contractions occurred). The number of tested animals showing a reduction in the number of contractions higher than 30% of that observed in the basal period was recorded too.
The extrapolated doses which induced a reduction in the number of contractions greater than 30% in 50% of the treated rats (ED50) were evaluated by the method of Bliss (Bliss C. I., Quart J. Pharm. Pharmacol. 11, 192-216, 1938).

Consider one compound from US20030162777A1, “Novel N-acylated heterocycles” (Recordati S.A., priority 2001, published 2003).

For `O=C(C1CCCCC1)N1c2ccccc2CCC1CN1CCN(c2cccc3[nH]ccc23)CC1` (racemic) [Example 1, (±)1-(1-cyclohexanecarbonyl-1,2,3,4-tetrahydroquinoline-2-ylmethyl)-4-(4-indolyl)piperazine], the “post-synaptic 5-HT1A-receptor antagonist activity (in words)” value at 5-HT1A receptors (rats) was “significant and long-lasting post-synaptic 5-HT1A-receptor antagonist activity”. In addition, the inhibition at 1 mg/kg amounted to 91% on 5-HT1A receptors (0.5 h before 8-OH-DPAT (1 mg/kg s.c.)), 91% against 5-HT1A receptors (1 h before 8-OH-DPAT (1 mg/kg s.c.)) and 96% against 5-HT1A receptors (4 h before 8-OH-DPAT (1 mg/kg s.c.)). In addition, the ED50 with anaesthetised rats (Rattus norvegicus, read-out: ED50 frequency (extrapolated dose inducing a reduction of the number of contractions >30% in 50% of treated rats)) was 0.064 mg/kg. Moreover, in the experiment with anaesthetised rats, the “ED10 min (extrapolated dose inducing 10 minutes of disappearance of the contractions)” value was 107 µg/kg.

By inhibition is commonly meant the percentage by which the read-out fell short of the control. The low end stands for a weak effect, the high end for a strong effect. Broadly, the ED50 is the dose that gives a 50% effect, or the effect in half of the subjects.
